Test results from PubChem BioAssay (NCI).
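Abbreviation: GI50, concentration required for 50% inhibition of growth. TGI marks complete inhibition of growth.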

Experiments:
Assay in all cases: inhibition of tumour cell growth, NCI panel, 384-well format
ACHN renal = system: ACHN renal
MDA-MB-468 breast = system: MDA-MB-468 breast
M14 melanoma = system: M14 melanoma
CAKI-1 renal = system: CAKI-1 renal
MDA-MB-231 breast = system: MDA-MB-231 breast
BT-549 breast = system: BT-549 breast
A549 NSCLC = system: A549 NSCLC
U251 glioblastoma = system: U251 glioblastoma
MDA-MB-435 melanoma = system: MDA-MB-435 melanoma
RXF 393 renal = system: RXF 393 renal
UACC-62 melanoma = system: UACC-62 melanoma
NCI/ADR-RES ovarian = system: NCI/ADR-RES ovarian
HL-60(TB) leukemia = system: HL-60(TB) leukemia
IGROV1 ovarian = system: IGROV1 ovarian
786-0 renal = system: 786-0 renal
HOP-62 NSCLC = system: HOP-62 NSCLC
SF-539 CNS = system: SF-539 CNS
SK-OV-3 ovarian = system: SK-OV-3 ovarian
SN12C renal = system: SN12C renal
DU-145 prostate = system: DU-145 prostate
SK-MEL-5 melanoma = system: SK-MEL-5 melanoma
COLO 205 colon = system: COLO 205 colon
OVCAR-8 ovarian = system: OVCAR-8 ovarian
HOP-92 NSCLC = system: HOP-92 NSCLC
SK-MEL-28 melanoma = system: SK-MEL-28 melanoma
OVCAR-4 ovarian = system: OVCAR-4 ovarian
T-47D breast = system: T-47D breast
MCF7 breast = system: MCF7 breast
KM12 colon = system: KM12 colon
HT29 colon = system: HT29 colon
RPMI-8226 leukemia = system: RPMI-8226 leukemia
NCI-H23 lung = system: NCI-H23 lung
SR leukemia = system: SR leukemia
CCRF-CEM leukemia = system: CCRF-CEM leukemia
K-562 leukemia = system: K-562 leukemia
NCI-H522 lung = system: NCI-H522 lung
HCT-116 colon = system: HCT-116 colon
NCI-H460 NSCLC = system: NCI-H460 NSCLC
PC-3 prostate = system: PC-3 prostate
A498 renal = system: A498 renal
LOX IMVI melanoma = system: LOX IMVI melanoma
HCC-2998 colon = system: HCC-2998 colon
UACC-257 melanoma = system: UACC-257 melanoma
MOLT-4 leukemia = system: MOLT-4 leukemia
SNB-19 CNS = system: SNB-19 CNS
MALME-3M melanoma = system: MALME-3M melanoma
HCT-15 colon = system: HCT-15 colon
SK-MEL-2 melanoma = system: SK-MEL-2 melanoma
OVCAR-3 ovarian = system: OVCAR-3 ovarian
SF-295 CNS = system: SF-295 CNS
SF-268 CNS = system: SF-268 CNS
TK-10 renal = system: TK-10 renal
OVCAR-5 ovarian = system: OVCAR-5 ovarian
NCI-H322M lung = system: NCI-H322M lung
UO-31 renal = system: UO-31 renal
SW-620 colon = system: SW-620 colon
NCI-H226 lung = system: NCI-H226 lung

CCOc1cc(C(C)(C)C)ccc1C1=N[C@@](C)(c2ccc(Cl)cc2)[C@@](C)(c2ccc(Cl)cc2)N1C(=O)N1CCN(CCCS(C)(=O)=O)CC1
GI50 (ACHN renal): 0.205 µM | TGI (ACHN renal): 1.21 µM | GI50 (MDA-MB-468 breast): 2.04 µM | TGI (MDA-MB-468 breast): 5.16 µM | GI50 (M14 melanoma): 1.07 µM | TGI (M14 melanoma): 3.24 µM | GI50 (CAKI-1 renal): 0.122 µM | TGI (CAKI-1 renal): 1.47 µM | GI50 (MDA-MB-231 breast): 2.66 µM | TGI (MDA-MB-231 breast): 6.53 µM | GI50 (BT-549 breast): 2.35 µM | TGI (BT-549 breast): 5.59 µM | GI50 (A549 NSCLC): 0.405 µM | TGI (A549 NSCLC): 1.63 µM | GI50 (U251 glioblastoma): 3.71 µM | TGI (U251 glioblastoma): 11.9 µM | GI50 (MDA-MB-435 melanoma): 3.94 µM | TGI (MDA-MB-435 melanoma): 11.7 µM | GI50 (RXF 393 renal): 2.23 µM | TGI (RXF 393 renal): 4.55 µM | GI50 (UACC-62 melanoma): 0.0678 µM | TGI (UACC-62 melanoma): 1.59 µM | GI50 (NCI/ADR-RES ovarian): 2.37 µM | TGI (NCI/ADR-RES ovarian): 6.07 µM | GI50 (HL-60(TB) leukemia): 2.56 µM | TGI (HL-60(TB) leukemia): 4.04 µM | GI50 (IGROV1 ovarian): 1.41 µM | TGI (IGROV1 ovarian): 3.32 µM | GI50 ([…]-0 renal): 2.51 µM | TGI (786-0 renal): 7.15 µM | GI50 (HOP-62 NSCLC): 2.48 µM | TGI (HOP-62 NSCLC): 6.59 µM | GI50 (SF-539 CNS): 2.03 µM | TGI (SF-539 CNS): 4.25 µM | GI50 (SK-OV-3 ovarian): 2.6 µM | TGI (SK-OV-3 ovarian): 7.36 µM | GI50 (SN12C renal): 2.4 µM | TGI (SN12C renal): 5.21 µM | GI50 (DU-145 prostate): 3.16 µM | TGI (DU-145 prostate): 10.1 µM | GI50 (SK-MEL-5 melanoma): 1.39 µM | TGI (SK-MEL-5 melanoma): 2.69 µM | GI50 (COLO 205 colon): 3.54 µM | TGI (COLO 205 colon): 9.6 µM | GI50 (OVCAR-8 ovarian): 3.56 µM | TGI (OVCAR-8 ovarian): 12.6 µM | GI50 (HOP-92 NSCLC): 2.24 µM | TGI (HOP-92 NSCLC): 4.68 µM | GI50 (SK-MEL-28 melanoma): 3.86 µM | TGI (SK-MEL-28 melanoma): 10.9 µM | GI50 (OVCAR-4 ovarian): 2.53 µM | TGI (OVCAR-4 ovarian): 5.89 µM | GI50 (T-47D breast): 2.44 µM | TGI (T-47D breast): 8.59 µM | GI50 (MCF7 breast): 0.411 µM | TGI (MCF7 breast): 1.94 µM | GI50 (KM12 colon): 2.23 µM | TGI (KM12 colon): 4.77 µM | GI50 (HT29 colon): 1.87 µM | TGI (HT29 colon): 3.29 µM | GI50 (RPMI-8226 leukemia): 1.82 µM | TGI (RPMI-8226 leukemia): 3.22 µM | GI50 (NCI-H23 lung): 5.59 µM | TGI (NCI-H23 lung): 16.4 µM | GI50 (SR leukemia): 0.02 µM | TGI (SR leukemia): 0.0569 µM | GI50 (CCRF-CEM leukemia): 2.12 µM | TGI (CCRF-CEM leukemia): 3.7 µM | GI50 (K-562 leukemia): 2.94 µM | TGI (K-562 leukemia): 8.63 µM | GI50 (NCI-H522 lung): 3.25 µM | TGI (NCI-H522 lung): 8.97 µM | GI50 (HCT-116 colon): 0.327 µM | TGI (HCT-116 colon): 1.61 µM | GI50 (NCI-H460 NSCLC): 0.224 µM | TGI (NCI-H460 NSCLC): 1.3 µM | GI50 (PC-3 prostate): 2.15 µM | TGI (PC-3 prostate): 4.43 µM | GI50 (A498 renal): 0.185 µM | TGI (A498 renal): 1.37 µM | GI50 (LOX IMVI melanoma): 0.892 µM | TGI (LOX IMVI melanoma): 2.12 µM | GI50 (HCC-2998 colon): 1.47 µM | TGI (HCC-2998 colon): 2.96 µM | GI50 (UACC-257 melanoma): 1.44 µM | TGI (UACC-257 melanoma): 3.14 µM | GI50 (MOLT-4 leukemia): 0.0296 µM | TGI (MOLT-4 leukemia): 0.0975 µM | GI50 (SNB-19 CNS): 3.18 µM | TGI (SNB-19 CNS): 11.3 µM | GI50 (MALME-3M melanoma): 0.753 µM | TGI (MALME-3M melanoma): 2.62 µM | GI50 (HCT-15 colon): 1.9 µM | TGI (HCT-15 colon): 3.49 µM | GI50 (SK-MEL-2 melanoma): 2.26 µM | TGI (SK-MEL-2 melanoma): 4.19 µM | GI50 (OVCAR-3 ovarian): 2.11 µM | TGI (OVCAR-3 ovarian): 3.76 µM | GI50 (SF-295 CNS): 1.93 µM | TGI (SF-295 CNS): 3.85 µM | GI50 (SF-268 CNS): 2.65 µM | TGI (SF-268 CNS): 7.38 µM | GI50 (TK-10 renal): 2.83 µM | TGI (TK-10 renal): 8.93 µM | GI50 (OVCAR-5 ovarian): 3.52 µM | TGI (OVCAR-5 ovarian): 10.8 µM | GI50 (NCI-H322M lung): 2.28 µM | TGI (NCI-H322M lung): 3.96 µM | GI50 (UO-31 renal): 0.0534 µM | TGI (UO-31 renal): 0.205 µM | GI50 (SW-620 colon): 4.24 µM | TGI (SW-620 colon): 13.2 µM | GI50 (NCI-H226 lung): 0.108 µM | TGI (NCI-H226 lung): 0.359 µM
